Measurements as given in paper PMC9596378, “Discovery and molecular basis of subtype-selective cyclophilin inhibitors” (Nature Chemical Biology, 2022).
Where “and” joins values, the source holds several entries; their conditions need not be identical. Equal entries are not always repeated. Where two headings read alike, the source gives them in different places.

Key:
NKTR = target: T1, NKTR (Homo sapiens, UniProt P30414); test: Chymotrypsin coupled prolyl-isomerase assay; format: biochemical; details: for prolyl-isomerase activity (raw dose-response value): NKTR
T1 construct: NKTR (UniProtKB Entry P30414: residues 7–179); host or cells: E. coli BL21(DE3)
T1 sequence (P30414 7-179): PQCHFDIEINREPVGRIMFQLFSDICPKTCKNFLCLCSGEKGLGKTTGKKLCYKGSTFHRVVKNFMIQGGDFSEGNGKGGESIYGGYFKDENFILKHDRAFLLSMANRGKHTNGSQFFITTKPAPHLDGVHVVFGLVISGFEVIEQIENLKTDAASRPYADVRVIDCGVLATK

CypB = target: T2, CypB (Homo sapiens, UniProt P23284); test: biochemical; details: for prolyl-isomerase activity (raw dose-response value): CypB
T2 construct: PPIB (UniProtKB Entry P23284: residues 34–216); His6 with TEV site (2BT vector leader) (N); made in house; host or cells: E. coli BL21(DE3)
Outline: (§1)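 Steps: cyclophilin plus compound 5 min at 2–3 °C; α-chymotrypsin added, 5 min more; Suc-AAPF-AMC substrate in LiCl/trifluoroethanol injected and fluorescence followed 330 s. Finals: 5 nM enzyme, 25 µM chymotrypsin, 5 µM substrate, 0.25% DMSO.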

CypD = CypD (Homo sapiens, UniProt P30405); test: Chymotrypsin coupled prolyl-isomerase assay; details: for prolyl-isomerase activity (raw dose-response value): CypD
PPWD1 = target: T3, PPWD1 (Homo sapiens, UniProt Q96BP3); test: Chymotrypsin coupled prolyl-isomerase assay; format: biochemical; details: for prolyl-isomerase activity (raw dose-response value): in s^-1
T3 construct: PPWD1 (UniProtKB Entry Q96BP3: residues 473–646); host or cells: E. coli BL21(DE3)
T3 sequence (Q96BP3 473-646): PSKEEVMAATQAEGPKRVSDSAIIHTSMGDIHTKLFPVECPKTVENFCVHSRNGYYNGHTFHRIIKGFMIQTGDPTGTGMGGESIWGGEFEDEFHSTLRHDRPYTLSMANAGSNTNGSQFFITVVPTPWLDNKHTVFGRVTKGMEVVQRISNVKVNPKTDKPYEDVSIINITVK

Cyp40 = Cyp40 (Homo sapiens, UniProt Q08752); test: Chymotrypsin coupled prolyl-isomerase assay; details: for prolyl-isomerase activity (raw dose-response value): in s^-1
Outline: as §1

PPIL1 = target: T4, PPIL1 (Homo sapiens, UniProt Q9Y3C6); test: Chymotrypsin coupled prolyl-isomerase assay; format: biochemical
T4 construct: PPIL1 (UniProtKB Entry Q9Y3C6: residues 1–166); made in house; host or cells: E. coli BL21(DE3)
T4 sequence (Q9Y3C6 1-166): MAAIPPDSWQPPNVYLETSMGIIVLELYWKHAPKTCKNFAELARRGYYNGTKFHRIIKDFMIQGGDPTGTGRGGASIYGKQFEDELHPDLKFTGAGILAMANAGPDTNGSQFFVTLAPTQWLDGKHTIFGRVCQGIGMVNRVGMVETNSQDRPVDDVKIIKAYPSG

Cyp40, sequence (Q08752 1-183): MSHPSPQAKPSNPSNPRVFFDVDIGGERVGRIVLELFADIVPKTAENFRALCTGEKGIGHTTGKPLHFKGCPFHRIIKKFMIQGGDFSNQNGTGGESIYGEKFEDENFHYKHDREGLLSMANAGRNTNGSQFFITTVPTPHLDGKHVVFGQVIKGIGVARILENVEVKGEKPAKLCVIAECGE
CypD, sequence (P30405 45-207): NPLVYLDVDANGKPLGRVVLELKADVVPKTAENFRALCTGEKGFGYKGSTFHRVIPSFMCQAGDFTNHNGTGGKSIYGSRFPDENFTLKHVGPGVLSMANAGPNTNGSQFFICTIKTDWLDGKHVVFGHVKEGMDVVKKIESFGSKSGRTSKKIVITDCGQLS
T2 sequence (P23284 34-216): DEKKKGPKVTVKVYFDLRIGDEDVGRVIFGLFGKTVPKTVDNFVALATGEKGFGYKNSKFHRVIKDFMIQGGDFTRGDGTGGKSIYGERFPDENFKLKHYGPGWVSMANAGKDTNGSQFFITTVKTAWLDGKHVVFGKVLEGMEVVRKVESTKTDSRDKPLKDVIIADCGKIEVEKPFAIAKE

**Q.** `NCCOCCNC(=O)[C@@H]1CCNC(=O)/C=C/C(=O)N2CCC[C@](Cc3ccccc3)(C2)C(=O)N[C@@H](Cc2ccc(-c3ccccc3)cc2)C(=O)NCc2ccccc2CC(=O)N1` [Compound B2] was tested. Which “prolyl-isomerase activity (raw dose-response value)” value (from here on “prolyl-isomerase activity”) (NKTR; dose 0.0457247 µM) did it give?
**A.** 0.03158 and 0.03033 and 0.03469

**Q.** What about the “prolyl-isomerase activity” value (NKTR; dose 0.137174 µM) of the same compound?
**A.** 0.03164 and 0.03314 and 0.03312

**Q.** What about the “prolyl-isomerase activity” value (NKTR; dose 0.411523 µM) of the same compound?
**A.** 0.0325 and 0.0338 and 0.02719

**Q.** What about the “prolyl-isomerase activity” value (NKTR; dose 1.23457 µM) of the same compound?
**A.** 0.03372 and 0.0315 and 0.03341

**Q.** What about the “prolyl-isomerase activity” value (NKTR; dose 3.7037 µM) of the same compound?
**A.** 0.03071 and 0.03218 and 0.03337

**Q.** And the “prolyl-isomerase activity” value (NKTR; dose 11.1111 µM)?
**A.** 0.03272 and 0.0287 and 0.03154

**Q.** And the “prolyl-isomerase activity” value (NKTR; dose 33.3333 µM)?
**A.** 0.034 and 0.032 and 0.03

**Q.** What about the “prolyl-isomerase activity” value (NKTR; dose 100 µM) of the same compound?
**A.** 0.0243 and 0.0254 and 0.02366

**Q.** What about the IC50 (NKTR; prolyl-isomerase inhibition, 5 nM cyclophilin, read-out: IC50 NKTR) of the same compound?
**A.** ~100 µM

**Q.** What about the IC50 (NKTR; wild-type NKTR, read-out: Wild-Type Cyclophilin Prolyl Isomerase Inhibition IC50 Values, NKTR) of the same compound?
**A.** 100 µM

**Q.** What about the “prolyl-isomerase activity” value (CypB; dose 0.00457247 µM) of the same compound?
**A.** 0.09192 and 0.1036 and 0.1252

**Q.** What about the “prolyl-isomerase activity” value (CypB; dose 0.0137174 µM) of the same compound?
**A.** 0.09377 and 0.09227 and 0.1138

**Q.** And the “prolyl-isomerase activity” value (CypB; dose 0.0411523 µM)?
**A.** 0.08535 and 0.07571 and 0.07363

**Q.** What about the “prolyl-isomerase activity” value (CypB; dose 0.123457 µM) of the same compound?
**A.** 0.076 and 0.06873 and 0.07349

**Q.** And the “prolyl-isomerase activity” value (CypB; dose 0.37037 µM)?
**A.** 0.05318 and 0.03953 and 0.04525

**Q.** What about the “prolyl-isomerase activity” value (CypB; dose 1.11111 µM) of the same compound?
**A.** 0.03174 and 0.02714 and 0.02735

**Q.** And the “prolyl-isomerase activity” value (CypB; dose 3.33333 µM)?
**A.** 0.02002 and 0.01837 and 0.01843

**Q.** And the “prolyl-isomerase activity” value (CypB; dose 10 µM)?
**A.** 0.01579 and 0.01529 and 0.01363

**Q.** And the IC50 (CypB; wild-type CypB, read-out: Wild-Type Cyclophilin Prolyl Isomerase Inhibition IC50 Values, CypB)?
**A.** 0.16 µM

**Q.** And the IC50 (CypD)?
**A.** 0.18 µM

**Q.** What about the “prolyl-isomerase activity” value (CypD; dose 0.0195312 µM) of the same compound?
**A.** 0.1243 and 0.1374 and 0.1472

**Q.** And the “prolyl-isomerase activity” value (CypD; dose 0.0390625 µM)?
**A.** 0.1094 and 0.1294 and 0.1367

**Q.** And the “prolyl-isomerase activity” value (CypD; dose 0.078125 µM)?
**A.** 0.0906 and 0.1127 and 0.1064

**Q.** And the “prolyl-isomerase activity” value (CypD; dose 0.15625 µM)?
**A.** 0.06823 and 0.08697 and 0.08033

**Q.** What about the “prolyl-isomerase activity” value (CypD; dose 0.3125 µM) of the same compound?
**A.** 0.0483 and 0.05915 and 0.05559

**Q.** And the “prolyl-isomerase activity” value (CypD; dose 0.625 µM)?
**A.** 0.03197 and 0.04004 and 0.03906

**Q.** And the “prolyl-isomerase activity” value (CypD; dose 1.25 µM)?
**A.** 0.02117 and 0.02794 and 0.0263

**Q.** What about the “prolyl-isomerase activity” value (CypD; dose 2.5 µM) of the same compound?
**A.** 0.0143 and 0.01947 and 0.02017

**Q.** And the “prolyl-isomerase activity” value (CypD; dose 5 µM)?
**A.** 0.01132 and 0.01248 and 0.01357

**Q.** What about the “prolyl-isomerase activity” value (PPWD1; PPWD1, dose 0.00976562 µM) of the same compound?
**A.** 0.06958 and 0.06894 and 0.06376

**Q.** And the “prolyl-isomerase activity” value (PPWD1; PPWD1, dose 0.0195312 µM)?
**A.** 0.07052 and 0.06933 and 0.06942

**Q.** What about the “prolyl-isomerase activity” value (PPWD1; PPWD1, dose 0.0390625 µM) of the same compound?
**A.** 0.07199 and 0.07365 and 0.06621

**Q.** And the “prolyl-isomerase activity” value (PPWD1; PPWD1, dose 0.078125 µM)?
**A.** 0.0685 and 0.06494 and 0.06712

**Q.** What about the “prolyl-isomerase activity” value (PPWD1; PPWD1, dose 0.15625 µM) of the same compound?
**A.** 0.06342 and 0.0629 and 0.06451

**Q.** And the “prolyl-isomerase activity” value (PPWD1; PPWD1, dose 0.3125 µM)?
**A.** 0.06089 and 0.06073 and 0.06267

**Q.** And the “prolyl-isomerase activity” value (PPWD1; PPWD1, dose 0.625 µM)?
**A.** 0.0549 and 0.05757 and 0.05993

**Q.** And the “prolyl-isomerase activity” value (PPWD1; PPWD1, dose 1.25 µM)?
**A.** 0.05311 and 0.05273 and 0.05312

**Q.** What about the “prolyl-isomerase activity” value (PPWD1; PPWD1, dose 2.5 µM) of the same compound?
**A.** 0.04134 and 0.04153 and 0.04427

**Q.** What about the “prolyl-isomerase activity” value (PPWD1; PPWD1, dose 5 µM) of the same compound?
**A.** 0.03369 and 0.0291 and 0.03053

**Q.** And the “prolyl-isomerase activity” value (PPWD1; PPWD1, dose 10 µM)?
**A.** 0.0224 and 0.02303 and 0.02481

**Q.** And the IC50 (PPWD1; wild-type PPWD1, read-out: Wild-Type Cyclophilin Prolyl Isomerase Inhibition IC50 Values, PPWD1)?
**A.** 3.2 µM

**Q.** What about the “prolyl-isomerase activity” value (Cyp40; Cyp40, dose 0.0228624 µM) of the same compound?
**A.** 0.06439 and 0.06966 and 0.09224

**Q.** And the “prolyl-isomerase activity” value (Cyp40; Cyp40, dose 0.0685871 µM)?
**A.** 0.06672 and 0.05591 and 0.0674

**Q.** What about the “prolyl-isomerase activity” value (Cyp40; Cyp40, dose 0.205761 µM) of the same compound?
**A.** 0.05415 and 0.04361 and 0.05573

**Q.** And the “prolyl-isomerase activity” value (Cyp40; Cyp40, dose 0.617284 µM)?
**A.** 0.04036 and 0.03584 and 0.03686

**Q.** What about the “prolyl-isomerase activity” value (Cyp40; Cyp40, dose 1.85185 µM) of the same compound?
**A.** 0.02841 and 0.02381 and 0.02316

**Q.** What about the “prolyl-isomerase activity” value (Cyp40; Cyp40, dose 5.55556 µM) of the same compound?
**A.** 0.01852 and 0.01638 and 0.01429

**Q.** What about the “prolyl-isomerase activity” value (Cyp40; Cyp40, dose 16.6667 µM) of the same compound?
**A.** 0.0159 and 0.01466 and 0.0158

**Q.** What about the “prolyl-isomerase activity” value (Cyp40; Cyp40, dose 50 µM) of the same compound?
**A.** 0.01447 and 0.01343 and 0.01173

**Q.** And the IC50 (Cyp40; Wild-Type Cyclophilin Prolyl Isomerase Inhibition IC50 Values, Cyp40, wild-type Cyp40)?
**A.** 0.26 µM

**Q.** And the “prolyl-isomerase activity” value (PPIL1; PPIL1, dose 0.0228624 µM)?
**A.** 0.08321 and 0.1059 and 0.1063

**Q.** And the “prolyl-isomerase activity” value (PPIL1; PPIL1, dose 0.0685871 µM)?
**A.** 0.0991 and 0.07246 and 0.09332

**Q.** And the “prolyl-isomerase activity” value (PPIL1; PPIL1, dose 0.205761 µM)?
**A.** 0.0916 and 0.08667 and 0.07563

**Q.** And the “prolyl-isomerase activity” value (PPIL1; PPIL1, dose 0.617284 µM)?
**A.** 0.08092 and 0.07121 and 0.1066

**Q.** What about the “prolyl-isomerase activity” value (PPIL1; PPIL1, dose 1.85185 µM) of the same compound?
**A.** 0.07438 and 0.05377 and 0.06473

**Q.** And the “prolyl-isomerase activity” value (PPIL1; PPIL1, dose 5.55556 µM)?
**A.** 0.04981 and 0.03892 and 0.03912

**Q.** What about the “prolyl-isomerase activity” value (PPIL1; PPIL1, dose 16.6667 µM) of the same compound?
**A.** 0.02881 and 0.02468 and 0.02483

**Q.** And the “prolyl-isomerase activity” value (PPIL1; PPIL1, dose 50 µM)?
**A.** 0.01705 and 0.01748 and 0.0139

**Q.** And the IC50 (PPIL1; wild-type PPIL1, read-out: Wild-Type Cyclophilin Prolyl Isomerase Inhibition IC50 Values, PPIL1)?
**A.** 1.9 µM
